Measured values: patent US20030059436A1, “Band 3 antigenic peptides, malaria polypeptides and uses thereof” (priority 2001, published 2003)
“Also recorded” adds a separate entry of the source. Ends that are not written are not given here. * marks the point of attachment. Biotin = O=C1N[C@H]2[C@H](CS[C@H]2CCCCC(=O)*)N1

Legend:
[1] = tested on: P. falciparum intraerythrocytic growth; assay: Growth inhibition assay by 3H-hypoxanthine incorporation method; type: cell-based, Plasmodium falciparum; details: 400 μM peptide; vs no peptide control
Procedure: (§1) FIG. 2 depicts the inhibition of P. falciparum invasion into RBCs by human Band 3 peptides. […] Ectodomains are shown as boxes in the three models. (i) Overlapping 12 to 20-residue peptides shown in solid bars were prepared according to the putative ectodomain boundaries. (ii) Casey model (Fujinaga, J., et al., J Biol Chem 274:6626-6633, 1999). (iii) Reithmeier model (Popov, M., et al., J Biol Chem 272:18325-18332, 1997). (iv) Sherman model (Crandall, I., et al., Parasitology 108:257-267, 1994). […] Artemisinin (25 μM) and no peptide samples were positive and negative controls, respectively. FIG. 2C is a bar graph depicting of invasion inhibition assay by ^3H-hypoxanthine incorporation method. Effects of Band 3 peptides relative to the control sample (no peptide) are shown. Artemisinin (50 μM) and unrelated peptide derived from dematin were used as positive and negative control, respectively. FIG. 2D is a bar graph that depicts results of a growth inhibition assay by ^3H-hypoxanthine incorporation method. Effects of Band 3 peptides relative to the control sample (no peptide) are shown. In all inhibition assays, mean parasitemia from three experiments was calculated with standard error. DMSO background was corrected when necessary. Student's t test was used to compare with the control (no peptide). FIG. 2E is a table providing a summary of net charge and pI for Band 3 peptides.
(§2) To investigate the possible role of Band 3 as a host receptor in P. falciparum invasion into RBCs, we employed a peptide scanning strategy based on recent topology models of human erythroid Band 3 (FIG. 2A). Synthetic peptides were derived from the putative ectodomains of human RBC Band 3, and their ability to inhibit the P. falciparum (3D7 strain) invasion of human RBCs in culture was tested using both visual counting (Schlichtherle, M., et al., Methods in Malaria Research 2000) and ^3H-hypoxanthine incorporation (Chulay, J. D., et al., Exp Parasitol 55:138-146, 1983) methods. […] Inhibition by these four Band 3 peptides was concentration dependent (50, 200, 500, and 1000 μM peptides, data not shown).

[2] = tested on: P. falciparum (3D7 strain) invasion of human RBCs; assay: Invasion inhibition assay by 3H-hypoxanthine incorporation method; type: cell-based, Plasmodium falciparum; details: for inhibition of invasion, 3H-hypoxanthine uptake assay: 400 μM peptide, vs other Band 3 peptides, no peptide and unrelated peptide; for IC50: 3H-hypoxanthine incorporation method, mean of three experiments±standard error, read-out: IC50 (50% inhibition in the parasite invasion of RBCs)
Procedure: as §1, §2
The IC50 values for peptides 5A and 5B could not be estimated because a saturable peptide concentration could not be reached with a low DMSO (≦1%) concentration. It is noteworthy that our peptides 5A, 5B, 5C, and 6A were designed by randomly dividing the two ectodomains of Band 3, and thus these peptides may not necessarily represent Band 3 amino acid compositions having the best inhibitory property. […] These findings are consistent with the view that Band 3 functions as an important receptor in the parasite invasion of RBCs.

[3] = molecular target: P. falciparum (3D7 strain) merozoite proteins (approximate molecular masses 175, 150, 125, 52, 48, 42, and 35 kDa); assay: cell-based or functional assay
[4] = tested on: P. falciparum (3D7 strain) merozoite proteins; assay: Blot overlay assay, merozoite proteins; type: binding, Plasmodium falciparum; details: biotinylated peptides each 400 μM
Procedure: (§3) Naturally released P. falciparum (3D7 strain) merozoites isolated as described (Mrema, J. E., et al., Exp Parasitol 54:285-295, 1982) and human RBC ghosts prepared as described (Dodge, J. T., et al., Arch Biochem Biophys 100:119-130, 1963) were subjected to SDS-PAGE. Proteins transferred onto nitrocellulose membrane were blocked overnight with 10% milk, 2% BSA, TBST (0.05%) at 4° C. After washing (4×) in TBST, the blot was incubated with biotinylated Band 3 peptides (each 400 μM) in TBST (0.025%), 10 mM phosphate buffer (pH 8.0), 60 mM KCl for 4 h at RT. After extensive washing, the blot was incubated with neutravidin-linked horseradish peroxidase (1:21,000, Pierce Chemical Co., Rockford, Ill.) in TBST (0.05%) with 2% BSA for 5-6 h at RT. After washing the blot with TBST (5×) and TBS (2×), bound peptides were visualized by the ECL method (Pierce Chemical Co.).
(§4) A binding study was carried out between the synthetic Band 3 peptides and merozoite proteins to understand the mechanism by which Band 3 peptides 5B, 5C, and 6A inhibit the parasite invasion of RBCs. P. falciparum merozoites essentially free of contaminating RBC membrane components were isolated (FIG. 3A), and total merozoite proteins were separated by SDS-PAGE (FIG. 3B). […] This was confirmed by Western blot using anti-spectrin and anti-Band 3 antibodies (not shown). […] Approximate molecular masses of these merozoite proteins are 175, 150, 125, 52, 48, 42, and 35 kDa (shown by arrowheads).

human RBC ghost proteins = assay: Blot overlay assay, RBC ghost proteins; type: binding; details: biotinylated peptides each 400 μM
Procedure: as §3, §4

[5] = tested on: P. falciparum (3D7 strain) invasion of human RBCs; assay: Invasion inhibition assay by visual counting method; type: cell-based, Plasmodium falciparum; details: for inhibition of invasion, visual counting assay: 500 μM peptide, ring stage parasites in Giemsa-stained thin smears, vs other Band 3 peptides and no peptide control; for inhibition of the invasion of Plasmodium falciparum malaria parasite into human erythrocytes in vitro: peptide scanning experiment, compared to control sample
Procedure: as §1
Plasmodium parasite cultures were maintained at 37° C. as described by Klotz, F. W., et. al., J Exp Med 165:1713-1718, 1987. To determine infection in RBCs, rings were counted from RBCs in Geimsa-stained thin smears.
as §2

GST-MSP138 = assay: Solution-binding assay, GST-MSP138 on beads; parameters: species or system P. falciparum (FCB1 strain)
From the text: MSP138 (SEQ ID NO:33), MSP142 (SEQ ID NO:34), and MSP119 (SEQ ID NO:35) genes were amplified from a P. falciparum (FCB1 strain) cDNA library (J. B. Dame) by PCR using the following primers: 5′-[…] (SEQ ID NO: 14, MSP138, sense, 3121-3133, Xhol), 5′-[…] (SEQ ID NO:15, MSP138, antisense, 4200-4193, NotI), 5′-[…] (SEQ ID NO:16, MSP142, sense, 4201-4218, XhoI), 5′-[…] (SEQ ID NO:17, MSP142, antisense, 5334-5321 NotI), 5′-[…]: (SEQ ID NO:18, MSP119, sense, 4993-5009 BamHI), 5′-[…] (SEQ ID NO:19, MSP119, antisense, 5334-5318, EcoRI). Similar cDNA libraries as well as CDNA pools are available to the public from MR4, ATCC (www.malaria.atcc.org).
Primers: 5′-[…] […] (SEQ ID NO:26, 6AB, antisense, 2640-2620, EcoRI).

[6] = molecular target: T1, SV40 large T-antigen fused to GAL4 AD (pGADT7 vector), two-hybrid control (UniProt P03070 86-708); assay: yeast two-hybrid assay
T1 construct: Kit control; also called pGADT7-T
T1 sequence (P03070 86-708 limits assumed): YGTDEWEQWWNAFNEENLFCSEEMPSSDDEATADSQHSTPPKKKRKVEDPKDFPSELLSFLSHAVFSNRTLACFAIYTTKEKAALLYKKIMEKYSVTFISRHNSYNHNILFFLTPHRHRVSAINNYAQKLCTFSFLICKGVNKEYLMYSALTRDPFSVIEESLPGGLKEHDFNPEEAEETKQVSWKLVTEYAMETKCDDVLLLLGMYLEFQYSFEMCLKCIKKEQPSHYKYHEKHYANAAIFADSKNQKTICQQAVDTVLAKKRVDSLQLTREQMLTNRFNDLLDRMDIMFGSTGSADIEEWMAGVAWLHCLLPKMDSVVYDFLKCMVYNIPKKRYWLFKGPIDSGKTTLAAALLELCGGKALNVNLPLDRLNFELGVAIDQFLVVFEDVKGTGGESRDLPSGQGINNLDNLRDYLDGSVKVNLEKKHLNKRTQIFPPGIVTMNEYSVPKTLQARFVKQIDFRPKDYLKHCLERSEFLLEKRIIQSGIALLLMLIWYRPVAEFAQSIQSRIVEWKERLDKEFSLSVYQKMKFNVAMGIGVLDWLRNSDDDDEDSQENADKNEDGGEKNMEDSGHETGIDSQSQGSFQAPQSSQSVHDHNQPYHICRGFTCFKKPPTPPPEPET
From the text: For the yeast two-hybrid assay, the co-transformation method was used to analyze the protein interaction in yeast AH109 cells using SD/-Leu/-Trp selection plates.

Question: Which “effect on intraerythrocytic growth of the parasite (3H-hypoxanthine uptake)” value (“effect on intraerythrocytic growth” below) [1] does the source give for “Peptide 1: Synthetic human Band 3 peptide, amino acid 424-435, N-terminal biotin tag (Biotin-GGLLGEKTRNQM; UniProt P02730 424-435, looked up, fragment)” here?
Answer: The value was “mild reduction in 3H-hypoxanthine uptake”.

Question: And the “inhibition of invasion, 3H-hypoxanthine uptake assay” value [2]?
Answer: Its value is “moderate but significant levels of inhibition of invasion”.

Question: With “Human Band 3 peptide 6A (amino acid 807-826), synthetic with N-terminal biotin tag” as the molecule, how does the IC50 values (50% inhibition in the parasite invasion of RBCs), 3H-hypoxanthine incorporation method [3] read?
Answer: The IC50 values (50% inhibition in the parasite invasion of RBCs), 3H-hypoxanthine incorporation method was 316 µM.

Question: How did the “effect on intraerythrocytic growth” value [1] turn out when “2: Synthetic human Band 3 peptide, amino acid 477-491, N-terminal biotin tag (Biotin-SFCETNGLEYIVGRV; UniProt P02730 477-491, looked up, fragment) [Peptide 2]” was run?
Answer: Its value is “mild reduction in 3H-hypoxanthine uptake”.

Question: What about the “binding to merozoite proteins, blot overlay” value (“binding to merozoite proteins” below) [4] of the same molecule?
Answer: Its value is “did not show significant binding”.

Question: And the “binding to RBC ghost proteins, blot overlay” value (human RBC ghost proteins)?
Answer: The value was “non-specific bindings”.

Question: What does the source list for “DRILLLFKPPKYHPDVPYVK [Peptide 6A, Synthetic human Band 3 peptide, amino acid 807-826]”?
Answer: effect on intraerythrocytic growth of the parasite (3H-hypoxanthine uptake) [1]: did not affect the intraerythrocytic growth of the parasite; inhibition of invasion, 3H-hypoxanthine uptake assay [2]: strong inhibition; IC50 [2]: 316 ± 45 µM; inhibition of invasion, visual counting assay [5]: significant levels of inhibition of invasion; inhibition of the invasion of Plasmodium falciparum malaria parasite into human erythrocytes in vitro ([5]; listed as B36A): inhibited the invasion; also recorded: highest inhibition; binding to merozoite proteins, blot overlay [4]: specifically bind

Question: How did the “binding to merozoite proteins” value [4] turn out when “4A: Synthetic human Band 3 peptide, amino acid 623-642, N-terminal biotin tag (Biotin-FIQDTYTQKLSVPDGFKVSN; UniProt P02730 623-642, looked up, fragment) [Peptide 4A]” was run?
Answer: Its value is “did not show significant binding”.

Question: And the “binding to RBC ghost proteins, blot overlay” value (human RBC ghost proteins)?
Answer: The value was “non-specific bindings”.

Question: “GKASTPGAAAQIQEVKEQRI [Peptide 5C, Synthetic human Band 3 peptide, amino acid 742-761]” was tested. Which “effect on intraerythrocytic growth” value [1] did it give?
Answer: The value was “did not affect the intraerythrocytic growth of the parasite”.

Question: What about the “inhibition of invasion, 3H-hypoxanthine uptake assay” value [2] of the same molecule?
Answer: Its value is “moderate but significant levels of inhibition of invasion”.

Question: And the IC50 [2]?
Answer: Its IC50 is 591 ± 131 µM.

Question: What about the “inhibition of invasion, visual counting assay” value [5] of the same molecule?
Answer: The value was “significant levels of inhibition of invasion”.

Question: What about the “inhibition of the invasion of Plasmodium falciparum malaria parasite into human erythrocytes in vitro” value (“inhibition of the invasion … in vitro” for short) ([5]; listed as B35C) of the same molecule?
Answer: Its value is “inhibited the invasion; also recorded: highest inhibition”.

Question: What about the “binding to merozoite proteins” value [4] of the same molecule?
Answer: The value was “specifically bind”.

Question: What does the source list for “5BC: Recombinant human Band 3 peptide, amino acid 731-761, expressed as GST or GAL4 DNA-BD fusion (SVTHANALTVMGKASTPGAAAQIQEVKEQRI; also: expressed as GST or GAL4 DNA-BD fusion) [Peptide 5BC]”?
Answer: binding to GST-MSP138 on beads (GST-MSP138; 32P-labeled 5BC 21, 42, 84, 168 μM): concentration-dependent manner; Kd (GST-MSP138; 32P-labeled peptide, pH 7.4, 25° C., 3.5 h, C-terminal truncated GST-MSP138): 67 µM

Question: Which “effect on intraerythrocytic growth” value [1] does the source give for GMPWLSATTVRSVTHANALT [Peptide 5A] here?
Answer: Its value is “mild reduction in 3H-hypoxanthine uptake”.

Question: What about the “inhibition of invasion, visual counting assay” value [5] of the same molecule?
Answer: The value was “significant levels of inhibition of invasion”.

Question: What about the “inhibition of the invasion … in vitro” value [5] of the same molecule?
Answer: Its value is “inhibited the invasion”.

Question: With “SVTHANALTVMGKASTPGAA [Peptide 5B, Synthetic human Band 3 peptide, amino acid 731-750]” as the molecule, how does the “effect on intraerythrocytic growth” value [1] read?
Answer: Its value is “did not affect the intraerythrocytic growth of the parasite”.

Question: What about the “inhibition of invasion, 3H-hypoxanthine uptake assay” value [2] of the same molecule?
Answer: The value was “moderate but significant levels of inhibition of invasion”.

Question: And the “inhibition of invasion, visual counting assay” value [5]?
Answer: The value was “significant levels of inhibition of invasion”.

Question: What about the “inhibition of the invasion … in vitro” value [5] of the same molecule?
Answer: The value was “inhibited the invasion”.

Question: Which results are given for “3A: Synthetic human Band 3 peptide, amino acid 538-557, N-terminal biotin tag (Biotin-SKLIKIFQDHPLQKTYNYNV; UniProt P02730 538-557, looked up, fragment) [Peptide 3A]”?
Answer: binding to merozoite proteins, blot overlay [4]: did not show significant binding; binding to RBC ghost proteins, blot overlay (human RBC ghost proteins): non-specific bindings

Question: How did the IC50 values (50% inhibition in the parasite invasion of RBCs), 3H-hypoxanthine incorporation method [3] turn out when “Human Band 3 peptide 5C (amino acid 742-761), synthetic with N-terminal biotin tag” was run?
Answer: Its IC50 values (50% inhibition in the parasite invasion of RBCs), 3H-hypoxanthine incorporation method is 591 µM.

B1: GAL4 DNA-BD fusion of Band 3 peptide 5ABC (amino acids 720-761) in pGBKT7 (other)
peptide: GMPWLSATTVRSVTHANALTVMGKASTPGAAAQIQEVKEQRI
modifications: not fully specified (N-terminus); also: GAL4 DNA-BD fusion in pGBKT7, fused part not given here
notes: also called BD-5ABC; pGBKT7-5ABC
Question: Does B1 bind [6]?
Answer: Result: no binding

B2: GAL4 DNA-BD fusion of Band 3 peptide 6AB (amino acids 807-842) in pGBKT7 (other)
peptide: DRILLLFKPPKYHPDVPYVKRVKTWRMHLFTGIQII
modifications: not fully specified (N-terminus); also: GAL4 DNA-BD fusion in pGBKT7, fused part not given here
Question: Does B2 bind [6]?
Answer: Result: no binding

B3: GAL4 DNA-BD fusion of Band 3 peptide 5BC (amino acids 731-761) in pGBKT7 (other)
peptide: SVTHANALTVMGKASTPGAAAQIQEVKEQRI
modifications: not fully specified (N-terminus); also: GAL4 DNA-BD fusion in pGBKT7, fused part not given here
Question: Does B3 bind [6]?
Answer: Result: no binding
